Test system: SK cells
Assay: SK cell viability (Alamar blue absorbance assay)
Type: cell-based, human
Details: indicated concentrations, 48 hours
Description: FIG. 1 depicts a graph in which SK cells were treated with DSF and CuCl2 (indicated concentrations) for 48 hours and relative cellular viability was measured using Alamar blue (absorbance based) assay. A443654 Akt inhibitor was used as a control.
FIG. 2 depicts a graph in which SK cells and normal human keratinocytes were treated with DSF and CuCl2 (indicated concentrations) for 48 hours and relative cellular viability was measured using Alamar blue (absorbance based) assay. A443654 Akt inhibitor was used as a control.
FIG. 4 depicts a graph of SK cell viability after treatment with DSF and/or Cu^2+. A443654 Akt inhibitor was used as a control.
FIG. 5 depicts a graph of SK cell viability after treatment with DSF and/or Zn^2+. A443654 Akt inhibitor was used as a control.
FIGS. 8 and 9 depict graphs of SK cell viability after treatment with pyrithione and/or Cu^2+. A443654 Akt inhibitor was used as a control. Cells from different donors were used for each experiment

COc1ccc(C2=N[C@@H](c3ccc(Cl)cc3)[C@@H](c3ccc(Cl)cc3)N2C(=O)N2CCNC(=O)C2)c(OC(C)C)c1 [nutlin-3a]
effect on SK cell viability: impair SK viability
